Measured values from patent publication US4250255A, “Assay method for isoenzyme activity” (Eastman Kodak Company, priority 1977, dated 1981).

Legend:
LD1 and LD5 = assay: Screening of amphiphiles for ability to discriminate between LD1 and LD5
Procedure: A series of solutions was prepared covering a range of concentrations for each amphiphile to be tested. The activities of both LD1 and LD5 were determined in the presence of the various concentrations of each amphiphile and compared with enzyme activities in buffer (relative activity).
Enzyme activity in the presence and absence of amphiphile was measured by the following procedure: Stock solutions of NADH (4 mM) and pyruvate (40 mM) were prepared daily in 30 mM sodium phosphate buffer, pH 7.4. Enzyme solutions were prepared daily by withdrawing 5 μl of the stock enzyme solutions with a Hamilton syringe and diluting to 5 ml with 30 mM sodium phosphate buffer. (The resulting solution contains approximately 5 U of enzyme/ml.) The enzyme assay was run by pipetting 2.7 ml of buffer or buffer surfactant solution into a 10 mm path length quartz cuvette, and 100 μl each of NADH and pyruvate stock solutions were added. […] Enzyme solution was added with good mixing; the absorbance decrease at 340 nm was measured as a function of time. The rate of the reaction was determined by measuring the slope of the initial absorbance decrease, i.e., within the first 50 seconds of the reaction.

mMDH = molecular target: T1, mMDH (Sus scrofa, UniProt P00346); assay: Assay for MDH (oxalacetic acid + NADH, 340 nm); assay type: biochemical, porcine; details: FIG. 17
T1 construct: Porcine cMDH and mMDH were used as ammonium sulfate suspensions
T1 sequence (P00346 25-338): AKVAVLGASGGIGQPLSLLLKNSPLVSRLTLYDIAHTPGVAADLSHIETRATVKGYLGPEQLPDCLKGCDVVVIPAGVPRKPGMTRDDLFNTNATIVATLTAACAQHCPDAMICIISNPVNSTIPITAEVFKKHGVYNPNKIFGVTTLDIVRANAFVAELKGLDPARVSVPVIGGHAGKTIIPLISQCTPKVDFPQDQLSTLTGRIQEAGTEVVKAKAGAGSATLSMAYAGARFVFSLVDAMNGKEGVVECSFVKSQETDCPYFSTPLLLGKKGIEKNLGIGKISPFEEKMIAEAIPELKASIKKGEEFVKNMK
Procedure: 1. Porcine cMDH and mMDH were used as ammonium sulfate suspensions. Typically, 5 μl of the enzyme stock solutions were diluted to 10 ml with 30 mM phosphate buffer, pH 7.4, prior to use. The resulting enzyme solutions were stored in ice water; 100 μl aliquots were withdrawn for assay except where another amount is specified.
The assay is based on conversion of oxalacetic acid to malate in the presence of NADH and MDH. The assay was made [formula] in 30 mM phosphate buffer, at ambient temperature, with and without appropriate surfactant concentrations, and contained 0.17 mM OAA and 0.13 mM NADH. The reaction was followed by monitoring the decrease in absorbance at 340 nm using either a Beckman 25 or Cary 118 spectrophotometer. The OAA solutions were stored over ice to prevent hydrolysis to pyruvic acid.

## CCCCCCCCCCOS(=O)(=O)[O-].[Na+] [DSS, sodium decylsulfate]
LD1 and LD5
  discrimination of LDH isoenzymes: excellent discriminators
LD1 and LD5; range of amphiphile concentrations, relative activity vs buffer
  Effectiveness (LDH isoenzyme inhibition specificity, LD1 vs LD5): ++
mMDH
  inactivation of mMDH relative to cMDH: clear preferential inactivation of mMDH relative to cMDH
